Molecular target: PDE4D3 (Homo sapiens, UniProt Q08499)
Test: biochemical

Sequence of PDE4D3 (Q08499 1-673 isoform Q08499-2): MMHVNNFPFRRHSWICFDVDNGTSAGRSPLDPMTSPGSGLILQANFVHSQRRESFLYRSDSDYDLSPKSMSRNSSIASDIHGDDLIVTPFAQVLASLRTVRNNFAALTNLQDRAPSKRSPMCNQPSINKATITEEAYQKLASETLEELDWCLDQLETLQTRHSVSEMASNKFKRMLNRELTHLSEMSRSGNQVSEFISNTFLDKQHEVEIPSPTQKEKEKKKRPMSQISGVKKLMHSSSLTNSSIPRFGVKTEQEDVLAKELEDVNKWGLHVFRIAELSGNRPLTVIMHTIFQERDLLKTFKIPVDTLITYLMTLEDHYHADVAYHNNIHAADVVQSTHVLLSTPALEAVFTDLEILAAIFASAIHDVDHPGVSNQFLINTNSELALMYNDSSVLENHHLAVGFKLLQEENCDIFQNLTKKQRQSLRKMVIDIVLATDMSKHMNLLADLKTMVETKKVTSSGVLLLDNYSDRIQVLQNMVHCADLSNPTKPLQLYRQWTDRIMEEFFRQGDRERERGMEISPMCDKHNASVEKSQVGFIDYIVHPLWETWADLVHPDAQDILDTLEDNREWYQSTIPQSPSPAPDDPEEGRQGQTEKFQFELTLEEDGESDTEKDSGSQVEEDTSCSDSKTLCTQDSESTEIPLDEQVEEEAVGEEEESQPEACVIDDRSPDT

IC50: 3.6 ± 0.5 µM
SMILES: COc1ccc(-c2cc(C(F)F)nn2-c2ccc(S(N)(=O)=O)cc2)cc1F [deracoxib]

From paper PMC3175485 (2011)
